Measurements taken from ChEMBL document CHEMBL1156143, “Structure-activity relationship studies of chalcone leading to 3-hydroxy-4,3',4',5'-tetramethoxychalcone and its analogues as potent nuclear factor kappaB inhibitors and their anticancer activities” (J Med Chem, 2009).
Active and inactive are the calls of the source. No cut-off for these calls is given here.

Assays:
NCI-H2009 [1] = experiment: Cytotoxicity against human NCI-H2009 cells after 48 hrs by fluorescence assay; assay type: functional; settings: NCI-H2009, 48 h
[2] = Inhibition of TNFalpha induced NF-kappaB activation in human A549 cells by luciferase reporter gene assay; assay type: cell-based
A549 = experiment: Cytotoxicity against human A549 cells after 48 hrs by fluorescence assay; assay type: functional; settings: A549, 48 h
Mus musculus [3] = experiment: Toxicity in SCID mouse xenografted with human NCI-H2009 cells assessed as necropsy at 1 mg/day, ip treated 6 days in a week for 5 weeks; assay type: organism-based; settings: in vivo
[4] = target: Interleukin-1 receptor-associated kinase 1 (Homo sapiens) (UniProt P51617); experiment: Inhibition of IRAK1 at 10 uM
Interleukin-1 receptor-associated kinase 1 (Homo sapiens), sequence (P51617 whole entry, looked up): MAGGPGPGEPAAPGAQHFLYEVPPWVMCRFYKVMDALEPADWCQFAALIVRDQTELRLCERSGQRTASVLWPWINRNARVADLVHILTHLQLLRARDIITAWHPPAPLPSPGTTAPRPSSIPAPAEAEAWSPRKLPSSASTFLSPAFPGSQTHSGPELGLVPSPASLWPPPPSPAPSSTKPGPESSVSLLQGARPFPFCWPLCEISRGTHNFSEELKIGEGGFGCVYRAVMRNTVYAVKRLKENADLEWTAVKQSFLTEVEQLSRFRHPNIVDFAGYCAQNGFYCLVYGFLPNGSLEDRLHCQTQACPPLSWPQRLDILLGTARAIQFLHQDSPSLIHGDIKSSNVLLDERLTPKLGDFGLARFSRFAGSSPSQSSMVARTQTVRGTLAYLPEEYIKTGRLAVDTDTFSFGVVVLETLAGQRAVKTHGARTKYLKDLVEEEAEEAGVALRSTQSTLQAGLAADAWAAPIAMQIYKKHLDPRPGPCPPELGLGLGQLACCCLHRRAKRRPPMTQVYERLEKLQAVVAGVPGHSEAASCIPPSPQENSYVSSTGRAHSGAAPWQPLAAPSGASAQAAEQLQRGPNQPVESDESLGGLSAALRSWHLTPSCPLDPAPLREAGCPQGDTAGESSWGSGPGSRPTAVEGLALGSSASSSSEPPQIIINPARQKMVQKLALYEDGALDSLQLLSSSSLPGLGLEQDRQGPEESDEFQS

[5] = target: T1, Interleukin-1 receptor-associated kinase 4 (Homo sapiens) (UniProt Q9NWZ3); experiment: Inhibition of IRAK4 at 10 uM
T1 sequence (whole entry): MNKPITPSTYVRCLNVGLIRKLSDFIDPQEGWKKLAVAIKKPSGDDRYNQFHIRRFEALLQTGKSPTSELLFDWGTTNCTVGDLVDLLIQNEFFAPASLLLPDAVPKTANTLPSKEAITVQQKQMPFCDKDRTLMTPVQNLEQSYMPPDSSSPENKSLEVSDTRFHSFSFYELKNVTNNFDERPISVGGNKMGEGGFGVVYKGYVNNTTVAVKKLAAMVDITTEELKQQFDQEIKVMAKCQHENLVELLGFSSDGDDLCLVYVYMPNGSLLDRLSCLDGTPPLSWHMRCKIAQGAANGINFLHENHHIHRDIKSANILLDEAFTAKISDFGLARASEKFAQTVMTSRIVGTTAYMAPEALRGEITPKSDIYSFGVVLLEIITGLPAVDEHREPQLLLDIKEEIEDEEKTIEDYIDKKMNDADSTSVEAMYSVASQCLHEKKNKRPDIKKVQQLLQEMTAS

[6] = target: Mitogen-activated protein kinase kinase kinase 7 (TAK1) (Homo sapiens) (UniProt O43318); experiment: Inhibition of TAK1 at 10 uM
Mitogen-activated protein kinase kinase kinase 7 (TAK1) (Homo sapiens), sequence (O43318 whole entry, looked up): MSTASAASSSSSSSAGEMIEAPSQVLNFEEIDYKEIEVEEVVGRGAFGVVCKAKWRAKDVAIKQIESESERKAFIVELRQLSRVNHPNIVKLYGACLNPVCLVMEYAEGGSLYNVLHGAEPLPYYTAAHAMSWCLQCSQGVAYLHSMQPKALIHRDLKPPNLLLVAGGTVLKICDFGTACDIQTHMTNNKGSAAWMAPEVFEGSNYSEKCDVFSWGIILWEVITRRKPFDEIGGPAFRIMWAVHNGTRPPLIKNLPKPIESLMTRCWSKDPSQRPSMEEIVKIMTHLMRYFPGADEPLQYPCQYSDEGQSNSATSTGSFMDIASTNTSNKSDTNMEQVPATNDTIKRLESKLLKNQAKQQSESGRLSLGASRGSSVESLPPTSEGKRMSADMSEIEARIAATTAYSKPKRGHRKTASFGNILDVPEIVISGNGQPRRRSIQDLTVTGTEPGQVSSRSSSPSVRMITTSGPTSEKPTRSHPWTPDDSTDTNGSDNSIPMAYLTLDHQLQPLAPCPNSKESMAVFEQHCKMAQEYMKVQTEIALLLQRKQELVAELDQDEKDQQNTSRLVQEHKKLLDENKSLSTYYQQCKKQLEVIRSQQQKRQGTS

Mus musculus [7] = experiment: Toxicity in SCID mouse xenografted with human NCI-H2009 cells assessed as increase in body weight at 1 mg/day, ip treated 6 days in a week for 5 weeks; assay type: organism-based; settings: in vivo
[8] = target: Proto-oncogene tyrosine-protein kinase Src (Homo sapiens) (UniProt P12931); experiment: Inhibition of c-Src at 10 uM
Proto-oncogene tyrosine-protein kinase Src (Homo sapiens), sequence (P12931 2-536 limits assumed): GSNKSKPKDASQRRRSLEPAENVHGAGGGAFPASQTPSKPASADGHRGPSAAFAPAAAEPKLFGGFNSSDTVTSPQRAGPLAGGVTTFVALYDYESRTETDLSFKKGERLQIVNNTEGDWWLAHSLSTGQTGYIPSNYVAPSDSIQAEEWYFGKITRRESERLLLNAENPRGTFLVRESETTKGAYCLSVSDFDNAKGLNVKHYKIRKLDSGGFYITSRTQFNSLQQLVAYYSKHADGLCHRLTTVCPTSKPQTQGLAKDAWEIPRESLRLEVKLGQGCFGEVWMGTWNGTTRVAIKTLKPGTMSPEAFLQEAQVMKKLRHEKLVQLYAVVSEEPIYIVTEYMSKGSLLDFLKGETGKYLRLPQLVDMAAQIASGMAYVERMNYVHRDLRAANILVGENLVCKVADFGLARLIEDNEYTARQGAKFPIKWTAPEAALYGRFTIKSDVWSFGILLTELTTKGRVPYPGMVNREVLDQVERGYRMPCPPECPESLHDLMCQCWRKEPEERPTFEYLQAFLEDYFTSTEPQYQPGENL

[9] = target: T2, Inhibitor of nuclear factor kappa-B kinase subunit beta (Homo sapiens) (UniProt O14920); experiment: Inhibition of IKK-beta at 10 uM
T2 sequence (whole entry): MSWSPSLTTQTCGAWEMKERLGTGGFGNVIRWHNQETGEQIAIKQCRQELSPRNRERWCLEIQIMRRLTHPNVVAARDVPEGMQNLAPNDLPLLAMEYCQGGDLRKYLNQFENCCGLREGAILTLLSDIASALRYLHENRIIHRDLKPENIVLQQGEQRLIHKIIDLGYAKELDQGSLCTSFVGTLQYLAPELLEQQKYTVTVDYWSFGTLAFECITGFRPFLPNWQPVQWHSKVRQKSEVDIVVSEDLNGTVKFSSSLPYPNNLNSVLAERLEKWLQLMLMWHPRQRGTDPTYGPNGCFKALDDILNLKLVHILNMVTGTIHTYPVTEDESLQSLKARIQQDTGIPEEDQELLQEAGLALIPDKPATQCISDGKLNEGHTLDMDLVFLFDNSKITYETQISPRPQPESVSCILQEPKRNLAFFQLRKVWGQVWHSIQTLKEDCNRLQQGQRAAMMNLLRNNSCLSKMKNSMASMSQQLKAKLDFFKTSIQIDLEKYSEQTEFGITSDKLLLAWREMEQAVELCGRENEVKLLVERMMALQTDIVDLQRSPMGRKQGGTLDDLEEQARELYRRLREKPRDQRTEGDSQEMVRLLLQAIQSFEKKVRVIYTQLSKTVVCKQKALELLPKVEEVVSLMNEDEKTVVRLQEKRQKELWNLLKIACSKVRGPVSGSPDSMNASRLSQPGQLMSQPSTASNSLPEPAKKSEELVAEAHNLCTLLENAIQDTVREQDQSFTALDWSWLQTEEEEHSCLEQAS

NCI-H2009 [10] = experiment: Anticancer activity against human NCI-H2009 cells xenografted in SCID mouse assessed as suppression of tumor growth at 1 mg/day, ip treated 6 days in a week for 5 weeks; assay type: functional
[11] = target: T3, Inhibitor of nuclear factor kappa-B kinase subunit alpha (Homo sapiens) (UniProt O15111); experiment: Inhibition of IKKalpha at 10 uM
T3 sequence (whole entry): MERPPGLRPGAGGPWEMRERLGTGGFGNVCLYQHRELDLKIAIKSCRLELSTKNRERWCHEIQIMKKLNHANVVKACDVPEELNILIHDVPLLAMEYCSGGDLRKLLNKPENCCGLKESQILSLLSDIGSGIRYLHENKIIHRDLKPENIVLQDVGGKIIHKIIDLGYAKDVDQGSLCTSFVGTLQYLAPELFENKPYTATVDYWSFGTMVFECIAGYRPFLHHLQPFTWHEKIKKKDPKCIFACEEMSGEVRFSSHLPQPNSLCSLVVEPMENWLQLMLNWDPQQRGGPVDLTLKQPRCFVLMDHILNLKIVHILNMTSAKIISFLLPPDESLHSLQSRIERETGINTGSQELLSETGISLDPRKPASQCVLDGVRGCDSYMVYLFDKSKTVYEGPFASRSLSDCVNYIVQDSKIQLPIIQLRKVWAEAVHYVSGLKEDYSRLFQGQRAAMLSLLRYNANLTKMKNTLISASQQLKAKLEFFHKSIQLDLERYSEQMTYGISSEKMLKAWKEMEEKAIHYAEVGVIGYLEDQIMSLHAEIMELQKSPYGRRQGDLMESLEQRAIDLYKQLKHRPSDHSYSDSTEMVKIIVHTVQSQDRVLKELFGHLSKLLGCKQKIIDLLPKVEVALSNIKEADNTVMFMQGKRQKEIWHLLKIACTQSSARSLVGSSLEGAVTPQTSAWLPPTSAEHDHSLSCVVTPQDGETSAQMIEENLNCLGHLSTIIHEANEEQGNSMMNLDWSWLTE

Mus musculus [12] = experiment: Toxicity in SCID mouse xenografted with human NCI-H2009 cells at 1 mg/day, ip treated 6 days in a week for 5 weeks; assay type: organism-based; settings: in vivo

COc1ccc(/C=C/C(=O)c2cc(OC)c(OC)c(OC)c2)cc1OCCO
GI50 (NCI-H2009 [1]): 3.3 µM | IC50 [2]: 9.1 µM | GI50 (A549): 4.7 µM

COc1ccc(/C=C/C(=O)c2c(O)cc(OC)cc2OC)cc1 [FLAVOKAWAIN A]
IC50 [2]: > 20 µM

COc1ccc(/C=C/C(=O)c2cc(OC)c(O)c(OC)c2)cc1O
GI50 (NCI-H2009 [1]): 7.5 µM | IC50 [2]: 14.7 µM | GI50 (A549): 4 µM

O=C(/C=C/c1ccccc1)c1ccccc1O [2'-HYDROXYCHALCONE]
IC50 [2]: > 20 µM

COc1cc(O)c(C(=O)/C=C/c2ccc(OC)c(C)c2)c(OC)c1
IC50 [2]: > 20 µM

O=C(/C=C/c1ccccc1)c1ccc(F)cc1
IC50 [2]: > 20 µM

COc1ccc(CCC(=O)c2cc(OC)c(OC)c(OC)c2)cc1O
GI50 (NCI-H2009 [1]): 47 µM | IC50 [2]: > 20 µM | GI50 (A549): 17.6 µM

O=C(/C=C/c1ccccc1)c1ccccc1 [CHALCONE]
IC50 [2]: > 20 µM

COc1cc(O)c(C(=O)/C=C/c2cccc(C)c2)c(OC)c1
IC50 [2]: 17 µM

CCCOc1ccc(/C=C/C(=O)c2c(O)cc(OC)cc2OC)cc1
IC50 [2]: > 20 µM

COc1cc(C(=O)/C=C/c2ccccc2)cc(OC)c1OC
GI50 (NCI-H2009 [1]): 6.6 µM | IC50 [2]: 8.9 µM | GI50 (A549): 8.8 µM

COc1cc(O)c(C(=O)/C=C/c2ccc(F)cc2)c(OC)c1
IC50 [2]: > 20 µM

COc1ccc(/C=C/C(=O)c2cc(OC)c(OC)c(OC)c2)cc1O
Activity (Mus musculus [3]): Non-toxic | GI50 (NCI-H2009 [1]): 5.2 µM | inhibition [4]: inactive | IC50 [2]: 5.1 µM | inhibition [5]: 41% | inhibition [6]: inactive | GI50 (A549): 2.1 µM | Activity (Mus musculus [7]): Non-toxic | inhibition [8]: inactive | inhibition [9]: 46% | Activity (NCI-H2009 [10]): 57% | inhibition [11]: inactive | Activity (Mus musculus [12]): Non-toxic

COc1cc(C(=O)/C=C/c2ccc(O)cc2)cc(OC)c1OC
GI50 (NCI-H2009 [1]): 4.5 µM | IC50 [2]: 11.6 µM | GI50 (A549): 8.5 µM

COc1cc(O)c(C(=O)/C=C/c2cc(OC)c(OC)c(OC)c2)c(OC)c1
IC50 [2]: > 20 µM

O=C(/C=C/c1ccccc1)c1ccc(C(F)(F)F)cc1
IC50 [2]: > 20 µM

COc1cc(O)c(C(=O)/C=C/c2cccc(Br)c2)c(OC)c1
IC50 [2]: 12.3 µM

COc1ccc(/C=C/C(=O)c2cc(OC)c(OC)c(OC)c2)cc1OCCN
GI50 (NCI-H2009 [1]): 3.6 µM | IC50 [2]: 5.9 µM | GI50 (A549): 5.6 µM

O=C(/C=C/c1ccccc1)c1ccc(F)c(F)c1
IC50 [2]: > 20 µM

COc1cc(O)c(C(=O)/C=C/c2ccccc2)c(OC)c1 [FLAVOKAWAIN B]
IC50 [2]: > 20 µM

Cc1ccc(C(=O)/C=C/c2ccccc2)cc1
IC50 [2]: > 20 µM

COc1cc(O)c(C(=O)/C=C/c2ccc(Cl)cc2)c(OC)c1
IC50 [2]: > 20 µM

COc1cc(C(=O)/C=C/c2cccc(O)c2)cc(OC)c1OC
GI50 (NCI-H2009 [1]): 4.2 µM | IC50 [2]: 2.3 µM | GI50 (A549): 1.7 µM

COc1cc(OC)cc(C(=O)/C=C/c2ccc(OC)c(O)c2)c1
GI50 (NCI-H2009 [1]): 2.3 µM | IC50 [2]: 8.1 µM | GI50 (A549): 3.3 µM

O=C(/C=C/c1ccc(O)cc1)c1ccc(O)cc1O [ISOLIQUIRITIGENIN]
IC50 [2]: > 20 µM

COc1cc(O)c(C(=O)/C=C/c2ccccc2Br)c(OC)c1
IC50 [2]: > 20 µM

COc1cc(C(=O)/C=C/c2ccc(O)c(O)c2)cc(OC)c1OC
GI50 (NCI-H2009 [1]): 1.1 µM | IC50 [2]: 1.9 µM | GI50 (A549): 2.6 µM

COc1ccc(/C=C/C(=O)c2ccc(OC)c(OC)c2)cc1O
GI50 (NCI-H2009 [1]): 4.6 µM | IC50 [2]: 8 µM | GI50 (A549): 5.2 µM

O=C(/C=C/c1ccc(O)cc1)c1ccccc1 [4-HYDROXYCHALCONE]
IC50 [2]: > 20 µM

COc1ccc(/C=C/C(=O)c2cc(OC)c(OC)c(OC)c2)cc1
GI50 (NCI-H2009 [1]): 8.4 µM | IC50 [2]: 19.3 µM | GI50 (A549): 12.4 µM

COc1cc(O)c(C(=O)/C=C/c2ccccc2C)c(OC)c1
IC50 [2]: > 20 µM

O=C(/C=C/c1ccc(O)c(O)c1)c1ccc(O)cc1O [BUTEIN]
IC50 [2]: > 20 µM

COc1cc(O)c(C(=O)/C=C/c2ccc(OC)c(O)c2)c(OC)c1
IC50 [2]: > 20 µM
